Test results from ChEMBL document CHEMBL1681783 (Bioorg Med Chem, 2011).

Assays:
Rattus norvegicus = species on record: Rattus norvegicus; assay: Inhibition of cholesterol synthesis in rat hepatic cells; format: functional, cell-based
Squalene synthase = target: T1, Squalene synthase (Homo sapiens, UniProt P37268)
T1 sequence (P37268 whole entry): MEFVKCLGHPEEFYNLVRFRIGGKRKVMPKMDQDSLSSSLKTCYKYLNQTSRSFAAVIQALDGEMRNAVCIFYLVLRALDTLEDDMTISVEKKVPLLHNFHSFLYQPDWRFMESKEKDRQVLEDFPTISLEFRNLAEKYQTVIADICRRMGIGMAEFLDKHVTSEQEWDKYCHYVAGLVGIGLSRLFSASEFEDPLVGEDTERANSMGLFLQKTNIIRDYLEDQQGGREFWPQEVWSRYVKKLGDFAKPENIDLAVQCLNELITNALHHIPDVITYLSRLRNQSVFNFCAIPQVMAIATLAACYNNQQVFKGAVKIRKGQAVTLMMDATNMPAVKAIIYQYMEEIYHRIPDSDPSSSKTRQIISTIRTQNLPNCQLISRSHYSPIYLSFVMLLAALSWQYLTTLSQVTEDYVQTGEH
Description: Inhibition of squalene synthase

[1] = Lipophilicity, log P of the compound; format: physicochemical; details: octanol/water

IC50 (Rattus norvegicus) | IC50 (Squalene synthase) | logP [1] | SMILES
2.6 µM | 0.22 µM | – | CC(C)(C)CN(C(=O)CCC(=O)NCC1CCCCC1)c1ccc(Cl)cc1C(O)c1ccccc1Cl (configuration not stated)
– | > 0.6 µM | – | CCOC(=O)C1CCCN(C(=O)CCC(=O)N(CC(C)(C)C)c2ccc(Cl)cc2C(O)c2ccc(F)cc2Cl)C1 (configuration not stated)
– | 0.0072 µM | – | CCOC(=O)C1CCN(C(=O)CCC(=O)N(CC(C)(C)C)c2ccc(Cl)cc2C(O)c2cccc(F)c2Cl)CC1 (configuration not stated)
0.6 µM | 0.0017 µM | – | COc1ccccc1C(O)c1cc(Cl)ccc1N(CC(C)(C)C)C(=O)CCC(=O)N1CCC(C(=O)O)CC1 (configuration not stated)
– | 21 µM | – | CCOC(=O)C1CCN(C(=O)CCC(=O)N(C)c2ccc(Cl)cc2C(O)c2ccccc2Cl)CC1 (configuration not stated)
– | 0.77 µM | – | CCOC(=O)C1CCN(C(=O)CCC(=O)N(CC(C)(C)C)c2ccc(Cl)cc2C(O)c2ccccc2)CC1 (configuration not stated)
– | 0.0023 µM | – | CCOC(=O)N1CCN(C(=O)CCC(=O)N(CC(C)(C)C)c2ccc(Cl)cc2C(O)c2ccccc2Cl)CC1 (configuration not stated)
2 µM | 0.0016 µM | – | CCCCNC(=O)C1CCN(C(=O)CCC(=O)N(CC(C)(C)C)c2ccc(Cl)cc2C(O)c2ccccc2Cl)CC1 (configuration not stated)
– | 0.0026 µM | – | CCOC(=O)C1CCCN(C(=O)CCC(=O)N(CC(C)(C)C)c2ccc(Cl)cc2C(O)c2ccccc2OC)C1 (configuration not stated)
> 10 µM | 1.7 µM | – | CC(C)(C)CN(C(=O)CCC(=O)N1CCC(C(=O)O)CC1)c1ccc(Cl)cc1C(O)c1ccccc1F (configuration not stated)
– | > 6 µM | – | CCOC(=O)C1CCN(C(=O)CCCC(=O)N(CC(C)(C)C)c2ccc(Cl)cc2C(O)c2ccccc2Cl)CC1 (configuration not stated)
– | 0.0011 µM | – | CCOC(=O)C1CCN(C(=O)CCC(=O)N(CC(C)(C)C)c2ccc(Cl)cc2C(O)c2ccccc2OC)CC1 (configuration not stated)
– | > 0.6 µM | – | CCOC(=O)C1CCN(C(=O)CCC(=O)N(CC(C)(C)C)c2ccc(Cl)cc2C(O)c2cc(F)ccc2Cl)CC1 (configuration not stated)
– | 0.013 µM | – | CCOC(=O)C1CCCN(C(=O)CCC(=O)N(CC(C)(C)C)c2ccc(Cl)cc2C(O)c2cccc3c2OCCO3)C1 (configuration not stated)
– | > 0.6 µM | – | CCOC(=O)C1CCCN(C(=O)CCC(=O)N(CC(C)(C)C)c2ccc(Cl)cc2C(O)c2ccccc2OCC)C1 (configuration not stated)
– | > 0.6 µM | – | CCOC(=O)C1CCCN(C(=O)CCC(=O)N(CC(C)(C)C)c2ccc(Cl)cc2C(O)c2cccc(OC)c2)C1 (configuration not stated)
– | > 0.6 µM | – | CCOC(=O)C1CCCN(C(=O)CCC(=O)N(CC(C)(C)C)c2ccc(Cl)cc2C(O)c2cc(F)ccc2Cl)C1 (configuration not stated)
– | > 0.6 µM | 2.8 | CC(C)(C)CN(C(=O)CCC(=O)N1CCCC(C(=O)O)C1)c1ccc(Cl)cc1C(O)c1cc(F)ccc1Cl (configuration not stated)
1.3 µM | 0.0084 µM | 3 | CC(C)(C)CN(C(=O)CCC(=O)N1CCCC(C(=O)O)C1)c1ccc(Cl)cc1C(O)c1cccc(F)c1Cl (configuration not stated)
– | 0.19 µM | 3.28 | CC(C)(C)CN(C(=O)CCC(=O)N1CCCC(C(=O)O)C1)c1ccc(Cl)cc1C(O)c1ccc(F)cc1Cl (configuration not stated)
– | 0.26 µM | – | CC(C)(C)CN(C(=O)CCC(=O)N1CCN(S(C)(=O)=O)CC1)c1ccc(Cl)cc1C(O)c1ccccc1Cl (configuration not stated)

IC50 (Rattus norvegicus) | IC50 (Squalene synthase) | logP [1] | SMILES
– | 0.00045 µM | – | CCOC(=O)C1CCN(C(=O)CCC(=O)N(CC(C)(C)C)c2ccc(Cl)cc2C(O)c2ccccc2F)CC1 (configuration not stated)
– | 0.0011 µM | – | CC(C)(C)CN(C(=O)CCC(=O)N1CCN(C(=O)OCc2ccccc2)CC1)c1ccc(Cl)cc1C(O)c1ccccc1Cl (configuration not stated)
0.2 µM | 0.29 µM | 2.52 | CC(C)(C)CN(C(=O)CCC(=O)N1CCCC(C(=O)O)C1)c1ccc(Cl)cc1C(O)c1ccccc1F (configuration not stated)
– | 0.002 µM | – | CCOC(=O)C1CCN(C(=O)CCC(=O)N(CC(C)(C)C)c2ccc(Cl)cc2C(O)c2ccc(F)cc2Cl)CC1 (configuration not stated)
– | > 0.6 µM | 3.32 | CCOc1ccccc1C(O)c1cc(Cl)ccc1N(CC(C)(C)C)C(=O)CCC(=O)N1CCCC(C(=O)O)C1 (configuration not stated)
– | > 0.6 µM | – | CCOc1ccccc1C(O)c1cc(Cl)ccc1N(CC(C)(C)C)C(=O)CCC(=O)N1CCC(C(=O)O)CC1 (configuration not stated)
1.5 µM | 0.002 µM | 2.25 | COc1cccc(C(O)c2cc(Cl)ccc2N(CC(C)(C)C)C(=O)CCC(=O)N2CCCC(C(=O)O)C2)c1OC (configuration not stated)
1.6 µM | 0.0028 µM | – | COc1cccc(C(O)c2cc(Cl)ccc2N(CC(C)(C)C)C(=O)CCC(=O)N2CCC(C(=O)O)CC2)c1OC (configuration not stated)
– | 0.21 µM | – | CCOC(=O)C1CCN(C(=O)CCC(=O)N(CC(C)(C)C)c2ccc(Cl)cc2C(O)c2cccc(OC)c2)CC1 (configuration not stated)
– | 0.6 µM | – | CCCN(C(=O)CCC(=O)N1CCC(C(=O)OCC)CC1)c1ccc(Cl)cc1C(O)c1ccccc1Cl (configuration not stated)
– | 6.5 µM | – | CC(C)(C)CN(C(=O)CCC(=O)O)c1ccc(Cl)cc1C(O)c1ccccc1Cl (configuration not stated)
– | 2.1 µM | – | CC(C)(C)CN(C(=O)CCC(=O)N1CCNCC1)c1ccc(Cl)cc1C(O)c1ccccc1Cl (configuration not stated)
– | 0.028 µM | – | CCOC(=O)C1CCCN(C(=O)CCC(=O)N(CC(C)(C)C)c2ccc(Cl)cc2C(O)c2cccc(F)c2Cl)C1 (configuration not stated)
1.4 µM | 0.0079 µM | – | CCOC(=O)CN1CCN(C(=O)CCC(=O)N(CC(C)(C)C)c2ccc(Cl)cc2C(O)c2ccccc2Cl)CC1 (configuration not stated)
0.23 µM | 0.007 µM | – | CC(C)(C)CN(C(=O)CCC(=O)N1CCC(C(=O)O)CC1)c1ccc(Cl)cc1C(O)c1cccc2c1OCCO2 (configuration not stated)
– | 0.0013 µM | – | CCOC(=O)C1CCCN(C(=O)CCC(=O)N(CC(C)(C)C)c2ccc(Cl)cc2C(O)c2cccc(OC)c2OC)C1 (configuration not stated)
– | 0.41 µM | – | CCOC(=O)C1CCN(C(=O)CCC(=O)N(CC(C)(C)C)c2ccc(Cl)cc2C(O)c2ccccc2OCC)CC1 (configuration not stated)
0.084 µM | – | 2.81 | COc1ccccc1C(O)c1cc(Cl)ccc1N(CC(C)(C)C)C(=O)CCC(=O)N1CCCC(C(=O)O)C1 (configuration not stated)
– | 0.097 µM | – | CN(C)C(=O)C1CCN(C(=O)CCC(=O)N(CC(C)(C)C)c2ccc(Cl)cc2C(O)c2ccccc2Cl)CC1 (configuration not stated)
0.92 µM | 0.017 µM | – | CC(C)(C)CN(C(=O)CCC(=O)N1CCC(C(=O)O)CC1)c1ccc(Cl)cc1C(O)c1cccc(F)c1Cl (configuration not stated)
– | > 0.6 µM | – | CC(C)(C)CN(C(=O)CCC(=O)N1CCC(C(=O)O)CC1)c1ccc(Cl)cc1C(O)c1ccc(F)cc1Cl (configuration not stated)

IC50 (Rattus norvegicus) | IC50 (Squalene synthase) | logP [1] | SMILES
0.27 µM | 0.02 µM | 2.98 | CC(C)(C)CN(C(=O)CCC(=O)N1CCCC(C(=O)O)C1)c1ccc(Cl)cc1[C@H](O)c1ccccc1Cl (some centres not stated)
– | – | 2.42 | CC(C)(C)CN(C(=O)CCC(=O)N1CCCC(C(=O)O)C1)c1ccc(Cl)cc1C(O)c1ccccc1 (configuration not stated)
0.17 µM | 0.0068 µM | 1.87 | CC(C)(C)CN(C(=O)CCC(=O)N1CCCC(C(=O)O)C1)c1ccc(Cl)cc1C(O)c1cccc2c1OCCO2 (configuration not stated)
– | 0.41 µM | – | CCOC(=O)C1CCCN(C(=O)CCC(=O)N(CC(C)(C)C)c2ccc(Cl)cc2C(O)c2ccccc2Cl)C1 (configuration not stated)
0.25 µM | 0.13 µM | – | CC(C)(C)CN(C(=O)CCC(=O)N1CCC(C(=O)O)CC1)c1ccc(Cl)cc1C(O)c1ccccc1Cl (configuration not stated)
– | > 0.6 µM | – | CCOC(=O)C1CCCN(C(=O)CCC(=O)N(CC(C)(C)C)c2ccc(Cl)cc2C(O)c2ccccc2F)C1 (configuration not stated)
– | 1.7 µM | – | COC(=O)CCC(=O)N(CC(C)(C)C)c1ccc(Cl)cc1C(O)c1ccccc1Cl (configuration not stated)
0.9 µM | 0.0013 µM | – | CNC(=O)C1CCN(C(=O)CCC(=O)N(CC(C)(C)C)c2ccc(Cl)cc2C(O)c2ccccc2Cl)CC1 (configuration not stated)
– | 0.01 µM | – | CCOC(=O)C1CCN(C(=O)CCC(=O)N(CC(C)(C)C)c2ccc(Cl)cc2C(O)c2cccc3c2OCCO3)CC1 (configuration not stated)
– | > 0.6 µM | 2.35 | COc1cccc(C(O)c2cc(Cl)ccc2N(CC(C)(C)C)C(=O)CCC(=O)N2CCCC(C(=O)O)C2)c1 (configuration not stated)
– | 0.28 µM | – | CC(C)(C)CN(C(=O)CCC(=O)N1CCC(C(N)=O)CC1)c1ccc(Cl)cc1C(O)c1ccccc1Cl (configuration not stated)
– | > 0.6 µM | – | CC(C)(C)CN(C(=O)CCC(=O)N1CCC(C(=O)O)CC1)c1ccc(Cl)cc1C(O)c1cc(F)ccc1Cl (configuration not stated)
1.6 µM | 0.0037 µM | – | CC(C)NC(=O)C1CCN(C(=O)CCC(=O)N(CC(C)(C)C)c2ccc(Cl)cc2C(O)c2ccccc2Cl)CC1 (configuration not stated)
– | 0.0024 µM | – | CCNC(=O)C1CCN(C(=O)CCC(=O)N(CC(C)(C)C)c2ccc(Cl)cc2C(O)c2ccccc2Cl)CC1 (configuration not stated)
– | 0.0011 µM | – | CCOC(=O)C1CCN(C(=O)CCC(=O)N(CC(C)(C)C)c2ccc(Cl)cc2C(O)c2cccc(OC)c2OC)CC1 (configuration not stated)
– | > 0.6 µM | – | CCOC(=O)C1CCN(C(=O)CC(=O)N(CC(C)(C)C)c2ccc(Cl)cc2C(O)c2ccccc2Cl)CC1 (configuration not stated)
– | > 0.6 µM | – | COc1cccc(C(O)c2cc(Cl)ccc2N(CC(C)(C)C)C(=O)CCC(=O)N2CCC(C(=O)O)CC2)c1 (configuration not stated)
– | > 6 µM | – | CCOC(=O)C1CCN(C(=O)CCC(=O)N(CC(C)(C)C)c2ccc(Cl)cc2CO)CC1
– | 0.65 µM | – | CCOC(=O)C1CCN(C(=O)CCC(=O)N(CC(C)(C)C)c2ccc(Cl)cc2Cc2ccccc2Cl)CC1
